# According to ChEMBL document CHEMBL1134883, “Antimalarial activity of ferrocenyl chalcones” (Bioorg Med Chem Lett, 2002):
# Test system: Plasmodium falciparum
# Experiment: Growth inhibition of chloroquine-resistant Plasmodium falciparum K1 by [3H]hypoxanthine uptake
# Assay type: functional, organism-based
row,Substance,IC50
1,1-(1-Naphthalenyl)-3-ferrocenyl-2-propen-1-one,47.4 µM
2,"1-(2,3,4-Trimethoxyphenyl)-3-ferrocenyl-2-propen-1-one",22.5 µM
3,"1-(2,4-Dihydroxyphenyl)-3-ferrocenyl-2-propen-1-one",31.5 µM
4,"1-(2,4-Dimethoxyphenyl)-3-ferrocenyl-2-propen-1-one",24.5 µM
5,1-(2-Hydroxyphenyl)-3-ferrocenyl-2-propen-1-one,73.5 µM
6,1-(2-Naphthalenyl)-3-ferrocenyl-2-propen-1-one,21 µM
7,1-(3-pyridyl)-3-ferrocenyl-2-propen-1-one,4.6 µM
8,1-(4-Butoxyphenyl)-3-ferrocenyl-2-propen-1-one,80 µM
9,1-(4-Ethoxyphenyl)-3-ferrocenyl-2-propen-1-one,200 µM
10,1-(4-Hydroxyphenyl)-3-ferrocenyl-2-propen-1-one,36 µM
11,1-(4-Methoxyphenyl)-3-ferrocenyl-2-propen-1-one,410 µM
12,1-(phenyl)-3-ferrocenyl-2-propen-1-one,175 µM
13,1-ferrocenyl-3-(1-Naphthalenyl)-2-propen-1-one,48.3 µM
14,"1-ferrocenyl-3-(2,4-Dichlorophenyl)-2-propen-1-one",29.4 µM
15,"1-ferrocenyl-3-(2,4-Difluorophenyl)-2-propen-1-one",23.2 µM
16,"1-ferrocenyl-3-(2,4-Dimethoxyphenyl)-2-propen-1-one",18 µM

row,Substance,IC50
1,1-ferrocenyl-3-(2-Chlorophenyl)-2-propen-1-one,42.4 µM
2,1-ferrocenyl-3-(2-Naphthalenyl)-2-propen-1-one,73.5 µM
3,1-ferrocenyl-3-(3-Chlorophenyl)-2-propen-1-one,36.2 µM
4,1-ferrocenyl-3-(3-Quinolinyl)-2-propen-1-one,18.2 µM
5,1-ferrocenyl-3-(3-pyridinyl)-2-propen-1-one,17 µM
6,1-ferrocenyl-3-(4-Chlorophenyl)-2-propen-1-one,14.5 µM
7,1-ferrocenyl-3-(4-Cyanophenyl)-2-propen-1-one,26.5 µM
8,1-ferrocenyl-3-(4-Fluorophenyl)-2-propen-1-one,12.1 µM
9,1-ferrocenyl-3-(4-Hydroxyphenyl)-2-propen-1-one,20.6 µM
10,1-ferrocenyl-3-(4-Methoxyphenyl)-2-propen-1-one,17 µM
11,1-ferrocenyl-3-(4-Methylphenyl)-2-propen-1-one,147 µM
12,1-ferrocenyl-3-(4-Nitrophenyl)-2-propen-1-one,5.1 µM
13,1-ferrocenyl-3-(4-Quinolinyl)-2-propen-1-one,14 µM
14,1-ferrocenyl-3-(4-Trifluoromethylphenyl)-2-propen-1-one,58.4 µM
15,1-ferrocenyl-3-(phenyl)-2-propen-1-one,19 µM
